Data published in patent publication US20020177120A1, “ASSAYS FOR APOTOSIS MODULATORS” (priority 1999, published 2002).

Experiments:
Format in all cases: cell-based, human
[1] = test system: F1-1-42 cells; experiment: Staurosporin-induced apoptosis in F1-1-42 SAT FRET reporter cells (FRET signal, western blot, caspase-3, morphology)
Experimental: Detecting Intracellular Changes in a FRET Reporter in Cells Undergoing Apoptosis: Having established that SAT reporter protein synthesized in HEK293 cells could be cleaved ex vivo, i.e., in cell lysates by trypsin (above), an initial in vivo intracellular assay was conducted using the selected F1-1-42 clonal cell line and staurosporin to induce apoptosis. […] In these experiments the F1-1-42 cells were plated at a density of 4×10^5 cells/0.5 ml in each well of a 24-well microtiter plate. After overnight incubation, apoptosis was induced by adding staurosporin to a final concentration of 5 μM, and using vehicle (0.25% DMSO) as a negative control. Assays for caspase-3 were used to confirm that apoptosis was induced. […] Subsequent testing determined that significant changes in FRET signal were first detectable at about 8 hours after addition of staurosporin and were maximal by 24 hrs post-induction.

[2] = test system: caspase-3; experiment: Inducibility and kinetics of apoptosis in U-138 cells (caspase-3 activity, inter-nucleosomal DNA fragmentation)
Experimental: DNA Fragmentation ELISA: Apoptosis-induced inter-nucleosomal fragmentation of chromosomal DNA was quantified using the “Cell Death Detection ELISA^PLUS” (Boehringer Mannheim) according to the manufacturer's instructions. Briefly, ˜10^4 cells/well were plated on a poly-D-lysine-coated 96-well plate and treated for various periods of times with different apoptosis-inducing agents. The cells were lysed and the nuclei and membranes were pelleted. An aliquot of the cytoplasm-containing supernatant was then transferred to a streptavidin-coated microtiter plate and incubated with anti-histone-biotin and anti-DNA-peroxidase, resulting in the formation of “sandwich” antibody complexes, i.e., (anti-DNA-peroxidase)-(nucleosomal-DNA-containing-histone) -(anti-histone-biotin)-(streptavidin-microtiter plate). Unbound antibody was removed by washing. Peroxidase substrate (i.e., ABTS) was added and nucleosomal DNA complexes quantified by spectrophotometric analysis of the colored peroxidase reaction product.
Caspase-3 Assay: Caspase-3 activity was assayed according to the following protocol. Cells plated and treated as above were washed in 1×PBS and lysed in 1×assay buffer (1 mM DTT, 1% Triton X-100, 0.5% Tween-20 in 1×PBS, pH 7.2). […] Fluorescence readings were taken on the Cytofluor II plate reader (excitation 360 nm, emission 460 nm, 6 reads/well, gain 50).

[3] = test system: HEK293 cells; experiment: Annexin V apoptotic membrane assay in SAT-reporter-transformed HEK293 cells; conditions: staurosporin, 4 hrs.
Excerpt: A test system was constructed to evaluate SAT reporter expression and feasibility of detecting FRET signal changes in mammalian cells in microtiter assays. The human embryonic kidney-derived HEK293 cell line was chosen as a host because of its relatively high transfection efficiency, rapid growth, easy maintenance and suitability for microplate assay formats. In preliminary experiments in which HEK293 cells were transfected with pcDNA3-Emerald, transformed cells were fluorescent and there was no loss of fluorescence, or obvious detrimental effects on cell morphology or growth, in a selected pool of cells (i.e., mixed populations of cells) over the course of one month. […] Optimal conditions for transfection of HEK 293 cells with SAT-reporter plasmid were determined. Cells transfected using LIPOFECTAMINE (Life Technologies) and selected in G418 (Life Technologies) expressed full-length SAT reporter protein as determined by western analysis of transformed HEK293 cells after two weeks of in vitro selection. […] Under these conditions of treatment with staurosporin only about half of the SAT-reporter-transformed HEK293 cells in the population were apoptotic at 4 hrs. as determined using the Annexin V assay (Materials and Methods). […]

[4] = test system: F10-24-2 control cells; experiment: FRET reporter control assay in F10-24-2 (SnAT) cells
Excerpt: Transfection of pcDNA3VH-SgAT and pcDNA3VH-SnAT into U-138 cells (using methods described above) resulted initially in few colonies and FRET signal was lost in many clones during expansion, however, from among the various subclones the F9-1-13 (pcDNA3VH-SgAT transfected; ATCC No. PTA-84) and F10-24-2 (pcDNA3-SnAT transfected) subclones were eventually expanded and shown to express stable FRET signals. As desired, the FRET signal expressed in F9-1-13 decreased in response to both staurosporin and anti-Fas antibody treatment of cells, while the FRET signal expressed by the F10-24-2 control cells, (i.e., lacking a caspase substrate domain), was unaffected following staurosporin or anti-Fas antibody treatment. […] F9-1-13 therefore appeared suitable for microtiter assays, and perhaps use in HTS assays for screening to identify and select modulators of apoptosis.

## CN[C@@H]1C[C@H]2O[C@@](C)([C@@H]1OC)n1c3ccccc3c3c4c(c5c6ccccc6n2c5c31)C(=O)NC4 [staurosporin]
[1]; 5 μM staurosporin
  SAT reporter cleavage by western analysis after induction: cleavage of the SAT reporter
  caspase-3 activity after induction: caspase-3 activation
[1]; 5 μM staurosporin, 24-well plate, 4×10^5 cells/0.5 ml
  FRET signal change after induction: concomitant decrease in FRET signal
[1]; after addition of staurosporin
  time at which significant changes in FRET signal were first detectable: about 8 hours
[1]; post-induction with staurosporin
  time at which FRET signal changes were maximal: ≤ 24 h
[2]; 5 μM staurosporin, minimal at 4 hrs., intermediate by 8 hrs.
  time at which caspase-3 activity and inter-nucleosomal DNA fragmentation were maximally altered: 16 to 24 h
[2]; 30-300 μM etoposide or 1.5-15.0 μM staurosporin, 8 hrs.
  inducibility of caspase-3 activity: inducible with staurosporin
[3]
  cells in the population apoptotic (Annexin V assay): about half
[4]; reporter lacking a caspase substrate domain
  FRET signal response to inducer treatment: unaffected
[4]; staurosporin induction
  FRET reporter western blot before and after induction of apoptosis: no visible difference
